Laboratory results: article PMC5075789, “Orphan GPR110 (ADGRF1) targeted by N-docosahexaenoylethanolamine in development of neurons and cognitive function” (Nature Communications, 2016)
Values belong to the compound of their own block, whether it stands above or below them.

Assays:
[1] = biological target: T1, hGPR110-HA (human GPR110, ADGRF1) (Homo sapiens, UniProt Q5T601); assay: microscale thermophoresis; details: read-out: apparent Kd
T1 construct: full-length ORF, 910 residues, C-terminal HA tag kept, expressed in HEK293 (CRE-luc2P HEK293 for cAMP); immunopurified with anti-HA for MST; glycosylated, about 130 and 110 kD
T1 sequence (Q5T601 20-566): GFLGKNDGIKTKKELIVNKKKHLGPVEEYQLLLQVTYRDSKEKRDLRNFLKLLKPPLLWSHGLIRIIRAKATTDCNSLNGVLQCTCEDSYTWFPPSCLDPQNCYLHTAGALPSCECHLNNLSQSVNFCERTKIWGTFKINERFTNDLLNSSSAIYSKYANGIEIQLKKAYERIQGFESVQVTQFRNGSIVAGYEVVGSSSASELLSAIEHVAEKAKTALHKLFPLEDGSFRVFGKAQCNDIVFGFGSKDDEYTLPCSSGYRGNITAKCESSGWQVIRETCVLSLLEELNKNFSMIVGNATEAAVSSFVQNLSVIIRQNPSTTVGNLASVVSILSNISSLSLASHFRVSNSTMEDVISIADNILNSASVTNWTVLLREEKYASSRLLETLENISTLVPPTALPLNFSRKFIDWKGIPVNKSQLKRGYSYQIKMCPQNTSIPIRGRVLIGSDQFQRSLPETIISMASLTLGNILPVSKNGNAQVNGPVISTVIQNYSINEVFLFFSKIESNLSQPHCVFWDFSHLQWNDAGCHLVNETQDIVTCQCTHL
T1 sequence (Q5T601 567-910): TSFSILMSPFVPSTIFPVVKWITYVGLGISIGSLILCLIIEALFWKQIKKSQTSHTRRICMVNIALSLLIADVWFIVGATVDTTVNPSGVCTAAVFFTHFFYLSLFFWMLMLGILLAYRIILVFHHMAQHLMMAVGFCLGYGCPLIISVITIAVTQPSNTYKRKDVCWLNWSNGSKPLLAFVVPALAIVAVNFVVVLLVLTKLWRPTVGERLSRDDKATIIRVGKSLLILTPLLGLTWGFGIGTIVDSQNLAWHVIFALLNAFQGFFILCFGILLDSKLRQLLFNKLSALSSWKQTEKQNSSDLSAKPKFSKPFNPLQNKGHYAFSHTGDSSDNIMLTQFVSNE
Excerpt: microscale thermophoresis on hGPR110-HA (human GPR110, ADGRF1) | immunopurified hGPR110 and bodipy-synaptamide, a fluorescent synaptamide analogue, indicated apparent Kd

[2] = biological target: T2, mGPR110-HA (mouse GPR110) (Mus musculus, UniProt Q8VEC3); assay: streptavidin pull-down and western blot; format: binding; details: 1 μM G1, HEK293 lysate, PBS with 0.5% Triton X-100
T2 construct: gene Adgrf1; full-length ORF, C-terminal HA tag kept, expressed in HEK293; about 100 kD main band
T2 sequence (Q8VEC3 21-564): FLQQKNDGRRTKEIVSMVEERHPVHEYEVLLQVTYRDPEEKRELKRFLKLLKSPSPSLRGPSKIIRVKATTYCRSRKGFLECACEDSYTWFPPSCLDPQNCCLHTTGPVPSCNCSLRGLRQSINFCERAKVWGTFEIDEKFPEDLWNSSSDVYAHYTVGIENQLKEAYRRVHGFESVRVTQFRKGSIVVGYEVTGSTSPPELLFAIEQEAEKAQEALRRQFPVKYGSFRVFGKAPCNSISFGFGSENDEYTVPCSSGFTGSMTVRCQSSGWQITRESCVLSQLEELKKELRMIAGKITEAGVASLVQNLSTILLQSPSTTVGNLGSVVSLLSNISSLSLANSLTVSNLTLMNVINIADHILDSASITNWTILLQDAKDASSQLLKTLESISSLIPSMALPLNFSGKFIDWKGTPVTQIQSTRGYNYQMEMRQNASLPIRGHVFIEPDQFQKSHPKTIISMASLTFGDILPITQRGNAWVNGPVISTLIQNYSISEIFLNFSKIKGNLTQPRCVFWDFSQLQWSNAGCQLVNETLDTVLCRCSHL
T2 sequence (Q8VEC3 565-908): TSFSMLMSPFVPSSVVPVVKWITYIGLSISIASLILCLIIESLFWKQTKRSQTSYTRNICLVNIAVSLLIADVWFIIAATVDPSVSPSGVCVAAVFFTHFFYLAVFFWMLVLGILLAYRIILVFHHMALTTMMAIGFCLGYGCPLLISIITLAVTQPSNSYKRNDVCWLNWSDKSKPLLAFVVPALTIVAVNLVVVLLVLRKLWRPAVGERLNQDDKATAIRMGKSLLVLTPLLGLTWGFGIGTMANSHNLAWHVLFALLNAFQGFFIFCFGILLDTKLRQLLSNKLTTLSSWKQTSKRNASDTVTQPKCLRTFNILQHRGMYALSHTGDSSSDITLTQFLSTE

[3] = biological target: T1, hGPR110-HA (human GPR110, ADGRF1); assay: streptavidin pull-down and western blot; format: binding; details: 1 μM G1, HEK293 lysate
[4] = biological target: T2, mGPR110-HA (mouse GPR110); assay: in-cell cross-linking (DSS), streptavidin pull-down, western blot; format: cell-based; details: 1 μM G1*, live HEK293 cells, 25 °C; cross-linked by 1 mM DSS

Kd [1]: ~20 nM
SMILES: CC/C=C\C/C=C\C/C=C\C/C=C\C/C=C\C/C=C\CCC(=O)NCCNC(=O)CCCCC1=C2C(C)=CC(C)=[N+]2[B-](F)(F)n2c(C)cc(C)c21 [bodipy-synaptamide, 10-(5-((2-((4Z,7Z,10Z,13Z,16Z,19Z)-docosa-4,7,10,13,16,19-hexaenamido)ethyl)amino)-5-oxopentyl)-5,5-difluoro-1,3,7,9-tetramethyl-5H-dipyrrolo(1,2-c:2',1'-f)(1,3,2)diazaborinin-4-ium-5-uide]

SMILES: CC/C=C\C/C=C\C/C=C\C/C=C\C/C=C\C/C=C\CCC(=O)NCCNC(=O)CCCC[C@@H]1SC[C@@H]2NC(=O)N[C@@H]21 [G1, (4Z,7Z,10Z,13Z,16Z,19Z)-N-(2-(5-((3aS,4S,6aR)-2-oxohexahydro-1H-thieno(3,4-d)imidazol-4-yl)pentanamido)ethyl)docosa-4,7,10,13,16,19-hexaenamide]
streptavidin pull-down and western blot [2]: confirming binding of G1 to the expressed mGPR110-HA
streptavidin pull-down and western blot [3]: hGPR110 showed G1 binding which was displaced by synaptamide

SMILES: CC/C=C\C/C=C\C/C=C\C/C=C\C/C=C\C/C=C\CCC(=O)NCCCC(CCCN)NC(=O)CCCC[C@@H]1SC[C@@H]2NC(=O)N[C@@H]21 (stereo partly drawn) [G1*, (4Z,7Z,10Z,13Z,16Z,19Z)-N-(7-amino-4-(5-((3aS,4S,6aR)-2-oxohexahydro-1H-thieno(3,4-d)imidazol-4-yl)pentanamido)heptyl)docosa-4,7,10,13,16,19-hexaenamide]
in-cell cross-linking (DSS), streptavidin pull-down, western blot [4]: confirming G1* binding to GPR110-HA in live HEK cells
